Test results from US20260042764A1, “COMPOSITIONS AND METHODS FOR INHIBITION OF KRAS” (TheRas, Inc., priority 2022, published 2026).

Key:
[1] = molecular target: T1, Avi-KRAS G12D (1-169) GppNHp/RAF1 RBD-3xFLAG (52-151) (Homo sapiens, UniProt P01116, G12D); assay: Raf1-KRAS G12D-GppNHP disruption HTRF assay (Biological Example 1); format: binding
T1 construct: Avi-KRAS G12D (1-169)
How it was run: (§1)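 Protein mix, 1 h RT, 700 rpm; reagent mix, 1 h RT, 700 rpm; HTRF read. Buffer Tris pH 7.5/NaCl/MgCl2/BSA/Tween, 10% DMSO. Output % activity, DMSO = 100%.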

[2] = molecular target: T2, Avi-KRAS G12R (1-169) GppNHp/RAF1 RBD-3xFLAG (52-151) (Homo sapiens, UniProt P01116, G12R); assay: Raf1-KRAS G12R-GppNHP disruption HTRF assay (Biological Example 1); format: binding
T2 construct: Avi-KRAS G12R (1-169)
T2 sequence (P01116 1-169 isoform P01116-2 G12R): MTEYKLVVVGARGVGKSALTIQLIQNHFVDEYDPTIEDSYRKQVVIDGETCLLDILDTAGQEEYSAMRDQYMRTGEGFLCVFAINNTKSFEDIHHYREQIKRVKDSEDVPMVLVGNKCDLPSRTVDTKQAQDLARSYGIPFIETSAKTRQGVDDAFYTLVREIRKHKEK
How it was run: as §1

[3] = molecular target: T3, Avi-KRAS G12V (1-169) GppNHp/RAF1 RBD-3xFLAG (52-151) (Homo sapiens, UniProt P01116, G12V); assay: Raf1-KRAS G12V-GppNHP disruption HTRF assay (Biological Example 1); format: binding
T3 construct: Avi-KRAS G12V (1-169)
T3 sequence (P01116 1-169 isoform P01116-2 G12V): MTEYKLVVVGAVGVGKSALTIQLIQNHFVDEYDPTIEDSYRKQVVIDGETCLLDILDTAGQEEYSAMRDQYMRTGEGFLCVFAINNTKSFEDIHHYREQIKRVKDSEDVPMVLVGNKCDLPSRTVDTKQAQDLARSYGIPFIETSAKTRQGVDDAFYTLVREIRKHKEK
How it was run: as §1

[4] = molecular target: T4, Avi-KRAS WT (1-169) GppNHp/RAF1 RBD-3xFLAG (52-151) (Homo sapiens, UniProt P01116); assay: Raf1-KRAS WT-GppNHP disruption HTRF assay (Biological Example 1); format: binding
T4 construct: Avi-KRAS WT (1-169)
T4 sequence (P01116 1-169 isoform P01116-2): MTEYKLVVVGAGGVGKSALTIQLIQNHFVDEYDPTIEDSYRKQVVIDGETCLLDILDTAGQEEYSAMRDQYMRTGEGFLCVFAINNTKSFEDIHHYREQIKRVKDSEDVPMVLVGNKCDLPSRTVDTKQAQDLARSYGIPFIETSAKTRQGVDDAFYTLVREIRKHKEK
How it was run: as §1

GP2d cells (KRAS G12D) = assay: Cell-based pERK HTRF assay in GP2d cell (Biological Example 2); details: GP2d (KRAS G12D) cells, pERK HTRF
How it was run: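 Treatment with test compounds lasted one hour in DMEM containing 10% FBS, with DMSO held at 0.25%. Dilution series: 9 points, half-log spacing, highest 1 μM or 100 nM. Lysates were incubated 4–24 h at room temperature with antibody mix, then HTRF was read at 320 nm excitation.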

SW620 cells (KRAS G12V) = assay: Cell-based pERK HTRF assay in SW620 cell (Biological Example 4); details: Homo sapiens, SW-620, SW620 (KRAS G12V) cells, pERK HTRF
How it was run: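 SW620 seeded in RPMI/10% FBS, next day dosed 4 h (top 1 μM, half-log, 9 pts, 0.25% DMSO). Lysed, pERK by d2/Eu cryptate HTRF, 4–24 h RT, 615 nm read.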

[5] = KRAS G12D, GppNHp-loaded, class symbols
[6] = KRAS G12R, GppNHp-loaded, class symbols
[7] = KRAS G12V, GppNHp-loaded, class symbols
[8] = KRAS WT, GppNHp-loaded, class symbols
[9] = KRAS G12D, GppNHp-loaded, Table 11
[10] = KRAS G12R, GppNHp-loaded, Table 11
[11] = KRAS G12V, GppNHp-loaded, Table 11
[12] = KRAS WT, GppNHp-loaded, Table 11

T1 sequence (P01116 1-169 isoform P01116-2 G12D): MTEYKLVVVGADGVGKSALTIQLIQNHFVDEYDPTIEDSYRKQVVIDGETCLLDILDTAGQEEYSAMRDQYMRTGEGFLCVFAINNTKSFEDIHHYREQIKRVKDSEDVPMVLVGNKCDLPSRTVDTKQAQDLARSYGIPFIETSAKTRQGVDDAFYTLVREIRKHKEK

Row | IC50 [1, 5] [nM] | IC50 [2, 6] [nM] | IC50 [3, 7] [nM] | IC50 [4, 8] [nM] | IC50 (GP2d cells (KRAS G12D); GP2d, class symbols) [nM] | IC50 (SW620 cells (KRAS G12V); class symbols) [nM] | IC50 ([1]; KRAS G12D-GppNHp/RAF1 RBD HTRF) [nM] | IC50 ([2]; KRAS G12R-GppNHp/RAF1 RBD HTRF) [nM] | IC50 ([3]; KRAS G12V-GppNHp/RAF1 RBD HTRF) [nM] | IC50 ([4]; KRAS WT-GppNHp/RAF1 RBD HTRF) [nM] | IC50 (GP2d cells (KRAS G12D); GP2d) [nM] | IC50 (SW620 cells (KRAS G12V)) [nM] | IC50 [1, 9] [nM] | IC50 [2, 10] [nM] | IC50 [3, 11] [nM] | IC50 [4, 12] [nM] | IC50 (GP2d cells (KRAS G12D)) [nM] | SMILES
1 | 100 to 1000 | 100 to 1000 | 100 to 1000 | 100 to 1000 | < 100 | < 100 | – | – | – | – | – | – | – | – | – | – | – | [2H]C1([2H])CN2C[C@H](F)C[C@]2(COc2nc(N3C[C@H]4C[C@@H]3CO4)c3cc(C(F)(F)F)c(-c4ccc(F)c5sc(N)c(C#N)c45)c(F)c3n2)C1 [Compound 567]
2 | – | – | – | – | – | – | 100 to 1000 | 1000 to 10000 | 1000 to 10000 | 100 to 1000 | 100 to 1000 | > 1000 | – | – | – | – | – | N#Cc1c(N)sc2c(F)ccc(-c3c(C(F)(F)F)cc4c(N5CC6C(=O)NC(=O)C6C5)nc(OC[C@@]56CCCN5C[C@H](F)C6)nc4c3F)c12 (stereo partly drawn) [Compound 308]
3 | 1000 to 10000 | 1000 to 10000 | 1000 to 10000 | 100 to 1000 | < 100 | < 100 | – | – | – | – | – | – | – | – | – | – | – | CC(=O)N1CC[C@H]2[C@@H]1CN2c1nc(OC[C@@]23CCCN2C[C@H](F)C3)nc2c(F)c(-c3ccc(F)c4sc(N)c(C#N)c34)c(C(F)(F)F)cc12 (atropisomer, axis not shown) [Compound 641]
4 | – | – | – | – | – | – | 100 to 1000 | 100 to 1000 | 100 to 1000 | 100 to 1000 | < 100 | < 100 | – | – | – | – | – | C[C@@H]1C[C@H](N(C)c2nc(OC[C@@]34CCCN3C[C@H](F)C4)nc3c(F)c(-c4ccc(F)c5sc(N)c(C#N)c45)c(C(F)(F)F)cc23)CN1C(=O)C1CC1 [Compound 443]
5 | – | – | – | – | – | – | – | – | – | – | – | < 100 | < 100 | < 100 | 100 to 1000 | < 100 | < 100 | CCN(C)c1nc(OC[C@@]23CCCN2C[C@H](F)C3)nc2c(F)c(-c3ccc(F)c4sc(N)c(C#N)c34)c(C(F)(F)F)cc12 (single isomer, unassigned) [Compound 196]
6 | – | – | – | – | – | – | 100 to 1000 | 1000 to 10000 | 1000 to 10000 | 100 to 1000 | < 100 | < 100 | – | – | – | – | – | CN(c1nc(OC[C@@]23CCCN2C[C@H](F)C3)nc2c(F)c(-c3ccc(F)c4sc(N)c(C#N)c34)c(C(F)(F)F)cc12)[C@@H]1CC[C@H](O)C1 [Compound 315]
7 | < 100 | < 100 | < 100 | < 100 | < 100 | < 100 | – | – | – | – | – | – | – | – | – | – | – | CCN(c1nc(OC[C@@]23CCCN2C[C@H](F)C3)nc2c(F)c(-c3ccc(F)c4sc(N)c(C#N)c34)c(C(F)(F)F)cc12)[C@H]1CCN(C(=O)OC2CCN(C(C)=O)CC2)C1 (atropisomer, axis not shown) [Compound 720]
8 | 100 to 1000 | 100 to 1000 | 100 to 1000 | 100 to 1000 | < 100 | < 100 | – | – | – | – | – | – | – | – | – | – | – | CCN(c1nc(OC[C@@]23CCCN2C[C@H](F)C3)nc2c(F)c(-c3ccc(F)c4sc(N)c(C#N)c34)c(C(F)(F)F)cc12)[C@H]1C[C@@H](C)N(C(=O)c2ccon2)C1 (atropisomer, axis not shown) [Compound 783]
9 | < 100 | < 100 | 100 to 1000 | < 100 | < 100 | < 100 | – | – | – | – | – | – | – | – | – | – | – | CCN(c1nc(OC[C@@]23CCCN2C[C@H](F)C3)nc2c(F)c(-c3ccc(F)c4sc(N)c(C#N)c34)c(C(F)(F)F)cc12)[C@H]1CCN(C(=O)[C@H](C)CF)C1 (atropisomer, axis not shown) [Compound 790]
10 | < 100 | < 100 | < 100 | < 100 | < 100 | < 100 | – | – | – | – | – | – | – | – | – | – | – | CCN(c1nc(OC[C@@]23CCCN2C[C@H](F)C3)nc2c(F)c(-c3ccc(F)c4sc(N)c(C#N)c34)c(C(F)(F)F)cc12)[C@H]1CCN(C(=O)N(C)C2COC2)C1 (atropisomer, axis not shown) [Compound 598]
11 | – | – | – | – | – | – | 100 to 1000 | 100 to 1000 | 1000 to 10000 | 100 to 1000 | < 100 | 100 to 1000 | – | – | – | – | – | N#Cc1c(N)sc2c(F)ccc(-c3c(C(F)(F)F)cc4c(N5C[C@H]6C[C@@H](O)[C@@H]5C6)nc(OC[C@@]56CCCN5C[C@H](F)C6)nc4c3F)c12 [Compound 362]
12 | – | – | – | – | – | – | – | – | – | – | < 100 | < 100 | 100 to 1000 | 100 to 1000 | 100 to 1000 | 100 to 1000 | – | N#Cc1c(N)sc2c(F)ccc(-c3c(C(F)(F)F)cc4c(N5CC(F)C5)nc(OC[C@@]56CCCN5C[C@H](F)C6)nc4c3F)c12 [Compound 222]
13 | 100 to 1000 | 100 to 1000 | 100 to 1000 | 100 to 1000 | < 100 | < 100 | – | – | – | – | – | – | – | – | – | – | – | CCN(CC)C(=O)c1cc2n(n1)CCN(c1nc(OCC34CCCN3CC(F)C4)nc3c(F)c(-c4ccc(F)c5sc(N)c(C#N)c45)c(C(F)(F)F)cc13)C2 (stereo not drawn) [Compound 645]
14 | – | – | – | – | – | – | 100 to 1000 | 100 to 1000 | 100 to 1000 | 100 to 1000 | < 100 | 100 to 1000 | – | – | – | – | – | CN(c1nc(OC[C@@]23CCCN2C[C@H](F)C3)nc2c(F)c(-c3ccc(F)c4sc(N)c(C#N)c34)c(C(F)(F)F)cc12)[C@@H]1CNC(=O)C1 [Compound 340]
15 | – | – | – | – | – | – | 1000 to 10000 | 100 to 1000 | 1000 to 10000 | 100 to 1000 | < 100 | 100 to 1000 | – | – | – | – | – | CCC(=O)N1CC[C@@H](N(C)c2nc(OC[C@@]34CCCN3C[C@H](F)C4)nc3c(F)c(-c4ccc(F)c5sc(N)c(C#N)c45)c(C(F)(F)F)cc23)[C@H]1CC [Compound 432]
16 | < 100 | < 100 | 100 to 1000 | < 100 | < 100 | < 100 | – | – | – | – | – | – | – | – | – | – | – | CCN(c1nc(OC[C@@]23CCCN2C[C@H](F)C3)nc2c(F)c(-c3ccc(F)c4sc(N)c(C#N)c34)c(C(F)(F)F)cc12)[C@H]1CC(=O)N(CCF)C1 (atropisomer, axis not shown) [Compound 635]
17 | – | – | – | – | – | – | 100 to 1000 | 100 to 1000 | 100 to 1000 | 100 to 1000 | < 100 | < 100 | – | – | – | – | – | COC1C2CN(c3nc(OC[C@@]45CCCN4C[C@H](F)C5)nc4c(F)c(-c5ccc(F)c6sc(N)c(C#N)c56)c(C(F)(F)F)cc34)C1CO2 (stereo partly drawn) [Compound 509]
18 | – | – | – | – | – | – | 100 to 1000 | 100 to 1000 | 1000 to 10000 | 1000 to 10000 | < 100 | < 100 | – | – | – | – | – | N#Cc1c(N)sc2c(F)ccc(-c3c(C(F)(F)F)cc4c(N5CCc6oncc6C5)nc(OC[C@@]56CCCN5C[C@H](F)C6)nc4c3F)c12 [Compound 507]
19 | < 100 | < 100 | < 100 | < 100 | < 100 | < 100 | – | – | – | – | – | – | – | – | – | – | – | CCN(c1nc(OC[C@@]23CCCN2C[C@H](F)C3)nc2c(F)c(-c3ccc(F)c4sc(N)c(C#N)c34)c(C(F)(F)F)cc12)[C@H]1CCN(C(=O)[C@@H](C)OC)C1 (atropisomer, axis not shown) [Compound 570]
20 | < 100 | < 100 | 100 to 1000 | < 100 | < 100 | < 100 | – | – | – | – | – | – | – | – | – | – | – | CCN(c1nc(OC[C@@]23CCCN2C[C@H](F)C3)nc2c(F)c(-c3ccc(F)c4sc(N)c(C#N)c34)c(C(F)(F)F)cc12)[C@H]1CCN(C(=O)[C@@H](C)CF)C1 (atropisomer, axis not shown) [Compound 710]
21 | 100 to 1000 | 100 to 1000 | 100 to 1000 | 100 to 1000 | < 100 | < 100 | – | – | – | – | – | – | – | – | – | – | – | CN(C)C(=O)c1nn2c(c1C1CC1)CN(c1nc(OCC34CCCN3CC(F)C4)nc3c(F)c(-c4ccc(F)c5sc(N)c(C#N)c45)c(C(F)(F)F)cc13)CC2 (stereo not drawn) [Compound 738]
